# In patent publication US5480987A, “2-substituted alkyl-3-carboxy carbapenems as antibiotics and a method of producing them” (American Cyanamid Company, priority 1994, dated 1996):
# Structures can show the parent of a compound that is named as a salt.
# How the values were obtained:
# Type in all cases: cell-based
# E. coli ATCC 25922 = assay: In vitro antibacterial activity, MIC by tube dilution, Ec(1); settings: Nutrient Broth; for MIC: Escherichia coli, ATCC25922, overnight incubation at 37° C., read-out: Minimum Inhibitory Concentration (MIC)
# E. coli ATCC 35218 = assay: In vitro antibacterial activity, MIC by tube dilution, Ec(2); settings: Nutrient Broth; for MIC: Escherichia coli, ATCC35218, overnight incubation at 37° C., read-out: Minimum Inhibitory Concentration (MIC)
# Staph. aureus ATCC 29213 = assay: In vitro antibacterial activity, MIC by tube dilution, SA(1); settings: Nutrient Broth; for MIC: Staphylococcus aureus, ATCC29213, overnight incubation at 37° C., read-out: Minimum Inhibitory Concentration (MIC)
# Staph. aureus ACCC 25923 = assay: In vitro antibacterial activity, MIC by tube dilution, SA(2); settings: Nutrient Broth; for MIC: Staphylococcus aureus, ACCC25923, overnight incubation at 37° C., read-out: Minimum Inhibitory Concentration (MIC)
# Ser. marceslens = assay: In vitro antibacterial activity, MIC by tube dilution, SM; settings: overnight incubation at 37° C., Nutrient Broth; for MIC: read-out: Minimum Inhibitory Concentration (MIC)
# Ent. cloacae = assay: In vitro antibacterial activity, MIC by tube dilution, Ent C; settings: overnight incubation at 37° C., Nutrient Broth; for MIC: Enterobacter cloacae, read-out: Minimum Inhibitory Concentration (MIC)
# E. Coli-OXA-2 = assay: In vitro antibacterial activity of carbapenem, piperacillin and 1:1 combination; settings: single agent
# Experimental: (§1) A sample of the carbapenems prepared in this invention is tested in combination with the penicillin Piperacillin. The enhanced combined synergistic antibacterial activity is representative of the anti β-lactamase properties of the carbapenems in this invention (Table 2).
# E. Coli-OXA-4 = assay: as above; settings: single agent
# Experimental: as §1
# E. Coli-OXA-5 = assay: as above; settings: single agent
# Experimental: as §1
# E. Coli-OXA-7 = assay: as above; settings: single agent
# Experimental: as §1
# Pseudomonas OXA-6 = assay: as above; settings: single agent
# Experimental: as §1
SMILES,MIC (E. coli ATCC 25922) [µg/mL],MIC (E. coli ATCC 35218) [µg/mL],MIC (Staph. aureus ATCC 29213) [µg/mL],MIC (Staph. aureus ACCC 25923) [µg/mL],MIC (Ser. marceslens) [µg/mL],MIC (Ent. cloacae) [µg/mL],Minimum Inhibitory Concentration (MIC) (E. coli ATCC 25922; overnight incubation at 37° C.) [µg/mL],Minimum Inhibitory Concentration (MIC) (E. coli ATCC 35218; overnight incubation at 37° C.) [µg/mL],Minimum Inhibitory Concentration (MIC) (Staph. aureus ATCC 29213; overnight incubation at 37° C.) [µg/mL],Minimum Inhibitory Concentration (MIC) (Staph. aureus ACCC 25923; overnight incubation at 37° C.) [µg/mL],Minimum Inhibitory Concentration (MIC) (Ser. marceslens) [µg/mL],Minimum Inhibitory Concentration (MIC) (Ent. cloacae) [µg/mL],M.I.C. (E. Coli-OXA-2) [µg/mL],M.I.C. (E. Coli-OXA-4) [µg/mL],M.I.C. (E. Coli-OXA-5) [µg/mL],M.I.C. (E. Coli-OXA-7) [µg/mL],M.I.C. (Pseudomonas OXA-6) [µg/mL]
"CC(O)C1C(=O)N2C(C(=O)O)=C(CS(=O)(=O)c3cccs3)CC12 (stereo not drawn) [Example 10, [5R-[5Alpha,6alpha(R*)]]-6-(1-hydroxyethyl)-3-[(2-thienylsulfonyl)methyl]-7-oxo-1-azabicyclo[3.2.0]-hept-2-ene-2-carboxylic acid, monosodium salt]",1,1,0.06,0.06,32,32,,,,,,,,,,,
"COC(=O)C(Cl)=C1CC2C(C(C)O)C(=O)N2C1C(=O)[O-].[Na+] (stereo not drawn) [Example 44, (2R-[2Alpha,3(R* or S*),5alpha,6alpha(R*)]]-3-(1-chloro-2-methoxy-2-oxoethylidene)-6-(1-hydroxyethyl)-7-oxo-1-azabicyclo[3.2.0]heptane-2-carboxylic acid, monosodium salt]",,,,,,,128,128,64,64,128,128,,,,,
"CC(O)C1C(=O)N2C(C(=O)O)=C(CS(=O)(=O)c3ccc(F)cc3)CC12 (stereo not drawn) [Example 48, [5R-[5Alpha,6alpha(R*)]]3-[[fluorophenyl)sulfonyl]methyl]-6-(1-hydroxyethyl)-7-oxo-1-azabicyclo[3.2.0]hept-2-ene-2-carboxylic acid, monosodium salt]",8,8,0.06,0.06,32,64,,,,,,,32,32,32,16,128
"CCN1CCN(C(=O)N[C@@H](C(=O)N[C@@H]2C(=O)N3[C@@H]2SC(C)(C)[C@@H]3C(=O)O)c2ccccc2)C(=O)C1=O [Piperacillin, reference compound]",,,,,,,,,,,,,16,8,2,128,32
